From PubChem BioAssay (NCI)
“And” between values parts separate entries of the source, which are not always exact repeats. Identical values can stand only once.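 Dose response: 5 concentrations. Exposure: 48 h. Format: 96-well plates. Endpoint: linear interpolation; highest concentration if not reached. TGI: concentration producing complete growth inhibition.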

Experiments:
Assay in all cases: inhibition of tumour cell growth, NCI panel, 48 h
A498 renal = system: A498 renal
A549 NSCLC = system: A549 NSCLC
CAKI-1 renal = system: CAKI-1 renal
HCT-116 colon = system: HCT-116 colon
HOP-62 NSCLC = system: HOP-62 NSCLC
HT29 colon = system: HT29 colon
MALME-3M melanoma = system: MALME-3M melanoma
MCF7 breast = system: MCF7 breast
MDA-MB-231 breast = system: MDA-MB-231 breast
NCI-H522 lung = system: NCI-H522 lung
OVCAR-5 ovarian = system: OVCAR-5 ovarian
PC-3 prostate = system: PC-3 prostate
SN12C renal = system: SN12C renal
SR leukemia = system: SR leukemia
SW-620 colon = system: SW-620 colon
U251 CNS = system: U251 CNS
UO-31 renal = system: UO-31 renal
KM12 colon = system: KM12 colon
OVCAR-8 ovarian = system: OVCAR-8 ovarian

Row | Structure (SMILES) | TGI (A498 renal) [µM] | TGI (A549 NSCLC) [µM] | TGI (CAKI-1 renal) [µM] | TGI (HCT-116 colon) | TGI (HOP-62 NSCLC) [µM] | TGI (HT29 colon) | TGI (MALME-3M melanoma) [µM] | TGI (MCF7 breast) [µM] | TGI (MDA-MB-231 breast) [µM] | TGI (NCI-H522 lung) [µM] | TGI (OVCAR-5 ovarian) | TGI (PC-3 prostate) [µM] | TGI (SN12C renal) [µM] | TGI (SR leukemia) [µM] | TGI (SW-620 colon) [µM] | TGI (U251 CNS) [µM] | TGI (UO-31 renal) | TGI (KM12 colon) | TGI (OVCAR-8 ovarian) [µM]
1 | C[C@@H]1C(O)CC[C@H](C)C12CC=CC2=O (some centres not stated) | > 100 | > 100 | > 100 | > 100 µM | > 100 | > 100 µM | > 100 | > 100 | > 100 | > 100 | > 100 µM | > 100 | > 100 | > 100 | > 100 | > 100 | > 100 µM |  | 
2 | CC1(C)CC(=O)c2c(nc3ccc4ccccc4c3c2-c2ccc(NC(=O)CCCCC(=O)Nc3ccc(-c4c5c(nc6ccc7ccccc7c46)CC(C)(C)CC5=O)cc3)cc2)C1 | > 100 | > 100 | > 100 | > 100 µM | > 100 | > 100 µM |  | > 100 | > 100 |  | > 100 µM | > 100 | > 100 | > 100 | > 100 | > 100 | > 100 µM | > 100 µM | > 100
3 | Cc1ccc(S(=O)(=O)N/N=C2\C=C[C@]3(CC2)C(=O)N(C)c2ccccc23)cc1 | > 100 | > 100 | > 100 | > 100 µM | > 100 |  |  | > 100 | > 100 |  | > 100 µM | > 100 | > 100 | > 100 | > 100 | > 100 | > 100 µM | > 100 µM | > 100
4 | S=C(Nc1ccc(Br)cn1)NC12CC3CC(CC(C3)C1)C2 | > 100 | 53.5 | > 100 | 35.3 µM | > 100 |  | 58.9 | > 100 | 58 | 37.5 | 90.7 µM | 43.2 |  | > 100 | > 100 | 30 | > 100 µM | > 100 µM | 25.9
5 | CSCCCCCCCCCCOc1ccc(C=C2C(=C(C#N)C#N)c3ccccc3C2=C(C#N)C#N)cc1 | 33.1 |  | 32.3 | 34.2 µM | 32.2 | 31 µM |  | 32.3 | 35.7 | 38.2 | 30.2 µM | 31.4 |  | 52.6 | 37.8 | 31.2 | 29.9 µM | 36.8 µM | 39.6
6 | CC(C)[Si](OC1=CCCCCC12C(=O)N(C)c1ccccc12)(C(C)C)C(C)C (configuration not stated) | 42.8 | 48.8 | 40.7 |  | 58.1 | 41.1 µM | 45.8 | 34 | 54.8 | 33.7 | 33.2 µM | > 100 |  | 67.3 | 35.6 | 36.3 | 36.7 µM | 38 µM | 44.6
7 | O=C1c2cc(CCl)sc2C(=O)c2ccsc21 | 3.01 | 0.417 | 3.09 | 0.39 µM |  | 2.56 µM | 0.0781 | 0.406 | 0.588 | 1.12 | 3.31 µM | 0.839 | 0.842 | 0.571 | 0.387 | 1.14 | 0.962 µM | 3.03 µM | 0.674
8 | CC(=O)OC[C@@]12C[C@H]3C(=O)C(C)(C)C[C@H]3[C@]1(C)[C@@H](OC(C)=O)[C@]1(O)[C@H]([C@@H](OC(=O)c3ccccc3)[C@@H](C)[C@H]1OC(C)=O)[C@H]2OC(C)=O | > 20 |  | > 20 | > 20 µM | > 20 |  |  | > 20 | > 20 | > 20 | > 20 µM | > 20 | > 20 | > 20 | > 20 | > 20 | > 20 µM | > 20 µM | > 20
9 | COc1ccc(NC2=NCCO2)c2ccccc12 | > 10 | > 10 | > 10 | > 10 µM | > 10 | > 10 µM | > 10 | > 10 | > 10 | > 10 | > 10 µM | > 10 | > 10 | > 10 | > 10 |  | > 10 µM | > 10 µM | > 10
10 | COc1cc2c(cc1OC)CCN=C2 | > 100 |  | > 100 | > 100 µM | > 100 | > 100 µM | > 100 | > 100 | > 100 |  | > 100 µM | > 100 | > 100 | > 100 | > 100 | > 100 | > 100 µM | > 100 µM | > 100
11 | O=C(O)CCC1(c2ccccc2)NC(=O)NC1=O (configuration not stated) | > 100 | > 100 | > 100 | > 100 µM | > 100 | > 100 µM | > 100 | > 100 | > 100 | > 100 | > 100 µM | > 100 | > 100 | > 100 | > 100 | > 100 |  | > 100 µM | > 100
12 | COc1nc(=O)n(C2CC(N=[N+]=[N-])C(CO)O2)cc1C (configuration not stated) |  | > 100 |  | > 100 µM | > 100 | > 100 µM | > 100 | > 100 | > 100 | > 100 | > 100 µM | > 100 | > 100 | > 100 | > 100 | > 100 | > 100 µM | > 100 µM | > 100
13 | O=C(NCc1ccccc1)c1cnc(Cl)cn1 | > 100 | > 100 | 33 | > 100 µM |  | > 100 µM | > 100 | > 100 | > 100 | 4.35 |  |  | > 100 | 69.8 | > 100 | > 100 | 36.3 µM | > 100 µM | > 100
14 | C#CCOC(=O)c1ccccc1OC(C)=O | > 100 |  | > 100 | > 100 µM | > 100 |  |  | > 100 | > 100 | > 100 | > 100 µM | > 100 | > 100 | > 100 | > 100 | > 100 | > 100 µM | > 100 µM | > 100
15 | O=C1c2ccccc2C(=O)N1c1ccc(OCCN2CCCCC2)cc1 | > 100 | > 100 | > 100 | > 100 µM | > 100 | > 100 µM | > 100 | > 100 | > 100 | > 100 | > 100 µM | > 100 | > 100 | > 100 | > 100 | > 100 |  | > 100 µM | > 100
16 | CSC(=NCCN=C(NS(=O)(=O)c1ccc(Cl)cc1)SC)NS(=O)(=O)c1ccc(Cl)cc1 | > 100 |  | > 100 | > 100 µM | 87.8 | > 100 µM | > 100 | > 100 | > 100 |  | > 100 µM | > 100 | > 100 | > 100 | > 100 | 42.6 | > 100 µM |  | > 100
17 | NC(CCCCNc1ccn(C2OC(CO)C(O)C2O)c(=O)n1)C(=O)O (configuration not stated) | > 100 | > 100 | > 100 |  |  |  | > 100 | > 100 | > 100 | > 100 | > 100 µM | > 100 | > 100 | > 100 | > 100 | > 100 | > 100 µM | > 100 µM | > 100
18 | NC(=O)N(O)c1cccc(Br)c1 | > 100 | > 100 | > 100 | > 100 µM | > 100 | > 100 µM |  | > 100 | > 100 | > 100 | > 100 µM | > 100 | > 100 | > 100 | > 100 | > 100 | > 100 µM | > 100 µM | > 100
19 | CC(C)(C)OC(=O)N1CCC23CCCC2C(=O)CC=C13 (configuration not stated) |  | > 100 | > 100 | > 100 µM | > 100 | > 100 µM | > 100 | > 100 | > 100 | > 100 | > 100 µM | > 100 | > 100 | > 100 | > 100 | > 100 | > 100 µM | > 100 µM | > 100
20 | CC(C)[Si]1(C(C)C)OCC2OC(n3ccc(=O)[nH]c3=O)C(O)(CO)C2O[Si](C(C)C)(C(C)C)O1 (configuration not stated) | 36.1 | 27.9 | 29.6 | 27.7 µM | 33.8 | 28.7 µM | 28.4 | 29.2 | 26.7 |  | 29.5 µM | 25.9 | 29.8 | 30 | 33.8 | 30.1 | 22.2 µM | 31 µM | 29.5
21 | COC(=O)C1(Cc2cccc(Cl)c2)CCCCCCN1C(=O)c1ccccc1 (configuration not stated) | 29 | 33.6 |  | 29.7 µM | 29 | 32.1 µM | 25.3 | 26.6 | 29 |  | 44.7 µM | 17.4 | 28.1 | 39.8 | 36 | 29.7 | 29.3 µM |  | 33.4
22 | Cc1cc2c(-c3ccccc3)cc(=O)[nH]c2cc1N | > 100 | > 100 | > 100 | > 100 µM | > 100 | > 100 µM |  | > 100 | > 100 |  | > 100 µM | > 100 | > 100 | > 100 | > 100 | > 100 | > 100 µM | > 100 µM | > 100
23 | COC(=O)C1=C(O)C(C(=O)OC)[C@]2(O)[C@H](C(=O)OC)[C@H]1C[C@@H](c1ccc(OC)cc1)[C@H]2C(=O)OC (some centres not stated) | 34.9 | 62.8 | 62.1 | 38.5 µM | 85.1 | 97.7 µM | > 100 | > 100 | 75.3 | 17.7 | 51.9 µM |  | 53.9 | 86.1 | > 100 | 65.6 | 34.9 µM | 41.3 µM | > 100
24 | CC(=O)c1cccc(NC2C(N)C(NC(=O)N(C)C)(C(C)O)C(C)(O)C2(O)COC(=O)c2c(C)cccc2O)c1 (configuration not stated) | < 0.001 | 0.347 | 0.0235 | 0.0437 µM and 0.185 µM | 0.0786 | 1.08 µM and 0.113 µM |  | 1.13 | 0.208 | 0.0641 | 0.0457 µM and 0.186 µM |  | 0.106 | > 100 | 1.75 | 0.109 | 0.194 µM and 0.257 µM | 0.213 µM and 0.164 µM | 0.131
25 | COCN1C(=O)[C@@H]2CCCN2C(=O)c2cc([N+](=O)[O-])ccc21 | > 100 | > 100 | > 100 | > 100 µM | > 100 | > 100 µM | > 100 | > 100 | > 100 | 44.6 | > 100 µM | > 100 | > 100 |  | > 100 | > 100 | > 100 µM | > 100 µM | > 100
26 | Nc1c(C(=O)c2ccccc2)[nH]c(NCc2ccccc2)c1C(=S)Nc1ccccc1 | > 100 | > 100 | > 100 | > 100 µM | > 100 | > 100 µM | > 100 | > 100 | > 100 | > 100 | > 100 µM |  | > 100 | > 100 | > 100 | > 100 | > 100 µM | > 100 µM | > 100
27 | O=[N+]([O-])C1(C2([N+](=O)[O-])CCCC2)CCCC1 | > 100 | > 100 | > 100 | > 100 µM |  | > 100 µM | > 100 | > 100 | > 100 | > 100 | > 100 µM | > 100 | > 100 | > 100 | > 100 | > 100 | > 100 µM | > 100 µM | > 100
